What was measured:
[1] = target: T1, Beta-lactamase 1 (Bacillus cereus, UniProt P00809); experiment: Inhibition of Beta-lactamase of Bacillus cereus (class A enzyme) without pre-incubation
T1 sequence (P00809 whole entry): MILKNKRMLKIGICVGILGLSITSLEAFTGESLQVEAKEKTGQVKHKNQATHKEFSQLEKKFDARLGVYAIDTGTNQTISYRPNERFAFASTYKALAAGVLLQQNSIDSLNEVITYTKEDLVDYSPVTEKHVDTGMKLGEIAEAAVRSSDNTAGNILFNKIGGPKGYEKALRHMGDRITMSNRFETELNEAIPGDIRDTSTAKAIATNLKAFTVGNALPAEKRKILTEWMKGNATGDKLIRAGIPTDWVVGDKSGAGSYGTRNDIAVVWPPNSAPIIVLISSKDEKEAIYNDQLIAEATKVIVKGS

[2] = target: T1, Beta-lactamase 1; experiment: Tested for the ability to inhibit Beta-lactamase of Bacillus cereus (class A enzyme) with 10 minutes pre-incubation

| Structure (SMILES) | IC50 [1] [µM] | IC50 [2] [µM] |
| --- | --- | --- |
| C[C@]1(CCl)[C@H](C(=O)O)N2C(=O)[C@H](Cl)[C@H]2S1(=O)=O | 450 | 70 |
| C[C@@]1(CSc2nc3ccccc3s2)S[C@@H]2[C@@H](Cl)C(=O)N2[C@H]1C(=O)O | > 5000 | > 5000 |
| C[C@]1(CCl)[C@H](C(=O)O)N2C(=O)[C@H](F)[C@H]2S1(=O)=O | > 3000 | > 3000 |
| CC1(C)[C@H](C(=O)O)N2C(=O)C[C@H]2S1(=O)=O [SULBACTAM] | 25 | 25 |
| C[C@]1(CCl)[C@H](C(=O)O)N2C(=O)[C@H](Br)[C@H]2S1(=O)=O | 3000 | 1000 |
| C[C@@]1(CSc2nc3ccccc3s2)S[C@@H]2[C@@H](Br)C(=O)N2[C@H]1C(=O)O | > 5000 | > 5000 |
| C[C@]1(CCl)[C@H](C(=O)O)N2C(=O)C[C@H]2S1(=O)=O | 250 | 300 |
| CC1(C)[C@H](C(=O)O)N2C(=O)[C@H](Cl)[C@H]2S1(=O)=O | 1500 | 200 |
| C[C@@]1(CSc2nc3ccccc3s2)S[C@@H]2[C@@H](F)C(=O)N2[C@H]1C(=O)O | > 5000 | > 5000 |

Reference: ChEMBL document CHEMBL1150008, “Synthesis and -lactamase inhibitory evaluation of novel 6-halo-2-chloromethyl-2-methylpenam-3-carboxylic acids and their sulfones and 6-halo-2-mercaptobenzothiazolylmethyl-2-methylpenam-3-carboxylic acids” (Bioorg Med Chem Lett, 1995)
